# Data taken from patent US11304934B2, “Use of isoxazoline derivatives for the treatment or prevention of arthropod infestations in poultry” (Intervet Inc., priority 2013, dated 2022).
# Experiments:
# Dermanyssus gallinae = assay: Efficacy of fluralaner via medicated drinking water against artificially induced poultry red mite infestations of laying hens; assay type: in vivo; details: for % Inhibition of mites 24 hours after infestation / % Mortality of mites 24 hours after infestation: laying hens
# Description: (§1) Groups A-D (n=6) were treated with doses of 2, 1 and 0.5 mg fluralaner/kg BW once or 1 mg fluralaner/kg BW split dose (0.5 mg/kg BW on 2 occasions).
# Drinking water consumption in each was measured on three days prior to administration to calculate the average daily water consumption. Medicated water was prepared by diluting a fluralaner solution (10 mg/mL) as shown in the table below to the calculated fluralaner concentration.
# (§2) On D0 (group D additionally on D7), the hens in groups A-D received fluralaner via medicated drinking water. Group E received un-medicated drinking water ad libitum.
# The dose to be administered was calculated based on average body weights of each treatment group, obtained one day before treatment (D-1, D6). A fluralaner stock solution was diluted in the drinking water to prepare medicated water ready for consumption.
# The volume of medicated water offered per group on D0 (group D also on D7) was approximately 50% of the calculated mean daily water intake measured previously in the respective group in order to ensure consumption of the full dose.
# Once all medicated water was consumed the other 50% volume of the mean daily water intake was supplied as tap water in the same drinker.
# On Day 1, Day 5, Day 8, Day 12, D15, D19 and D22 four of six hens per group were infested with approximately 200 vital, D. gallinae mites (unfed nymphs and adults that starved before infestation for 7 days).
# From each infested hen approximately 25 engorged mites were collected and incubated for approximately 24 hours. The dead, damaged and/or live mites were counted visually using a binocular.
# Mites were classified as dead if no movement was determined or mites lay in a dorsal position. Mites were classified as damaged if their movement was uncoordinated.
# The Mite Mortality and Mite Inhibition percentage was calculated for each treated group in comparison to a not-treated negative control group.
# [1] = Tolerability of fluralaner via medicated drinking water in hens; assay type: in vivo, laying hens; details: 2, 1, 0.5 mg/kg BW once or 2 × 0.5 mg/kg BW via medicated drinking water
# Description: as §1, §2
# [2] = Group A, 2 mg/kg BW once (D0) via drinking water, infestation on D1
# [3] = Group A, 2 mg/kg BW once (D0) via drinking water, infestation on D5
# [4] = Group A, 2 mg/kg BW once (D0) via drinking water, infestation on D8
# [5] = Group A, 2 mg/kg BW once (D0) via drinking water, infestation on D12
# [6] = Group A, 2 mg/kg BW once (D0) via drinking water, infestation on D15
# [7] = Group A, 2 mg/kg BW once (D0) via drinking water, infestation on D19
# [8] = Group A, 2 mg/kg BW once (D0) via drinking water, infestation on D22
# [9] = Group B, 1 mg/kg BW once (D0) via drinking water, infestation on D1
# [10] = Group B, 1 mg/kg BW once (D0) via drinking water, infestation on D5
# [11] = Group B, 1 mg/kg BW once (D0) via drinking water, infestation on D8
# [12] = Group B, 1 mg/kg BW once (D0) via drinking water, infestation on D12
# [13] = Group B, 1 mg/kg BW once (D0) via drinking water, infestation on D15
# [14] = Group B, 1 mg/kg BW once (D0) via drinking water, infestation on D19
# [15] = Group B, 1 mg/kg BW once (D0) via drinking water, infestation on D22
# [16] = Group C, 0.5 mg/kg BW once (D0) via drinking water, infestation on D1
# [17] = Group C, 0.5 mg/kg BW once (D0) via drinking water, infestation on D5
# [18] = Group C, 0.5 mg/kg BW once (D0) via drinking water, infestation on D8
# [19] = Group C, 0.5 mg/kg BW once (D0) via drinking water, infestation on D12
# [20] = Group C, 0.5 mg/kg BW once (D0) via drinking water, infestation on D15
# [21] = Group C, 0.5 mg/kg BW once (D0) via drinking water, infestation on D19
# [22] = Group C, 0.5 mg/kg BW once (D0) via drinking water, infestation on D22
# [23] = Group D, 1 (2 × 0.5) mg/kg BW split dose on D0 and D7 via drinking water, infestation on D1
# [24] = Group D, 1 (2 × 0.5) mg/kg BW split dose on D0 and D7 via drinking water, infestation on D5
# [25] = Group D, 1 (2 × 0.5) mg/kg BW split dose on D0 and D7 via drinking water, infestation on D8
# [26] = Group D, 1 (2 × 0.5) mg/kg BW split dose on D0 and D7 via drinking water, infestation on D12
# [27] = Group D, 1 (2 × 0.5) mg/kg BW split dose on D0 and D7 via drinking water, infestation on D15
# [28] = Group D, 1 (2 × 0.5) mg/kg BW split dose on D0 and D7 via drinking water, infestation on D19
# [29] = Group D, 1 (2 × 0.5) mg/kg BW split dose on D0 and D7 via drinking water, infestation on D22
smiles,measurement,setting,value
"Cc1cc(C2=NOC(c3cc(Cl)cc(Cl)c3)(C(F)(F)F)C2)ccc1C(=O)NCC(=O)NCC(F)(F)F (stereo not shown) [fluralaner, 4-[5-(3,5-Dichlorophenyl)-5-trifluoromethyl-4,5-dihydroisoxazol-3-yl]-2-methyl-N-[(2,2,2-trifluoro-ethylcarbamoyl)-methyl]-benzamide]",% Inhibition of mites 24 hours after infestation,Dermanyssus gallinae; [2],100%
same,% Mortality of mites 24 hours after infestation,Dermanyssus gallinae; [2],100%
same,% Inhibition of mites 24 hours after infestation,Dermanyssus gallinae; [3],100%
same,% Mortality of mites 24 hours after infestation,Dermanyssus gallinae; [3],100%
same,% Inhibition of mites 24 hours after infestation,Dermanyssus gallinae; [4],100%
same,% Mortality of mites 24 hours after infestation,Dermanyssus gallinae; [4],100%
same,% Inhibition of mites 24 hours after infestation,Dermanyssus gallinae; [5],100%
same,% Mortality of mites 24 hours after infestation,Dermanyssus gallinae; [5],100%
same,% Inhibition of mites 24 hours after infestation,Dermanyssus gallinae; [6],81%
same,% Mortality of mites 24 hours after infestation,Dermanyssus gallinae; [6],77%
same,% Inhibition of mites 24 hours after infestation,Dermanyssus gallinae; [7],14%
same,% Mortality of mites 24 hours after infestation,Dermanyssus gallinae; [7],1%
same,% Inhibition of mites 24 hours after infestation,Dermanyssus gallinae; [8],0%
same,% Mortality of mites 24 hours after infestation,Dermanyssus gallinae; [8],0%
same,% Inhibition of mites 24 hours after infestation,Dermanyssus gallinae; [9],100%
same,% Mortality of mites 24 hours after infestation,Dermanyssus gallinae; [9],100%
same,% Inhibition of mites 24 hours after infestation,Dermanyssus gallinae; [10],100%
same,% Mortality of mites 24 hours after infestation,Dermanyssus gallinae; [10],100%
same,% Inhibition of mites 24 hours after infestation,Dermanyssus gallinae; [11],100%
same,% Mortality of mites 24 hours after infestation,Dermanyssus gallinae; [11],100%
same,% Inhibition of mites 24 hours after infestation,Dermanyssus gallinae; [12],95%
same,% Mortality of mites 24 hours after infestation,Dermanyssus gallinae; [12],94%
same,% Inhibition of mites 24 hours after infestation,Dermanyssus gallinae; [13],81%
same,% Mortality of mites 24 hours after infestation,Dermanyssus gallinae; [13],77%
same,% Inhibition of mites 24 hours after infestation,Dermanyssus gallinae; [14],3%
same,% Mortality of mites 24 hours after infestation,Dermanyssus gallinae; [14],2%
same,% Inhibition of mites 24 hours after infestation,Dermanyssus gallinae; [15],0%
same,% Mortality of mites 24 hours after infestation,Dermanyssus gallinae; [15],0%
same,% Inhibition of mites 24 hours after infestation,Dermanyssus gallinae; [16],100%
same,% Mortality of mites 24 hours after infestation,Dermanyssus gallinae; [16],100%
same,% Inhibition of mites 24 hours after infestation,Dermanyssus gallinae; [17],100%
same,% Mortality of mites 24 hours after infestation,Dermanyssus gallinae; [17],100%
same,% Inhibition of mites 24 hours after infestation,Dermanyssus gallinae; [18],100%
same,% Mortality of mites 24 hours after infestation,Dermanyssus gallinae; [18],97%
same,% Inhibition of mites 24 hours after infestation,Dermanyssus gallinae; [19],75%
same,% Mortality of mites 24 hours after infestation,Dermanyssus gallinae; [19],55%
same,% Inhibition of mites 24 hours after infestation,Dermanyssus gallinae; [20],19%
same,% Mortality of mites 24 hours after infestation,Dermanyssus gallinae; [20],15%
same,% Inhibition of mites 24 hours after infestation,Dermanyssus gallinae; [21],0%
same,% Mortality of mites 24 hours after infestation,Dermanyssus gallinae; [21],0%
same,% Inhibition of mites 24 hours after infestation,Dermanyssus gallinae; [22],0%
same,% Mortality of mites 24 hours after infestation,Dermanyssus gallinae; [22],0%
same,% Inhibition of mites 24 hours after infestation,Dermanyssus gallinae; [23],100%
same,% Mortality of mites 24 hours after infestation,Dermanyssus gallinae; [23],100%
same,% Inhibition of mites 24 hours after infestation,Dermanyssus gallinae; [24],100%
same,% Mortality of mites 24 hours after infestation,Dermanyssus gallinae; [24],100%
same,% Inhibition of mites 24 hours after infestation,Dermanyssus gallinae; [25],100%
same,% Mortality of mites 24 hours after infestation,Dermanyssus gallinae; [25],100%
same,% Inhibition of mites 24 hours after infestation,Dermanyssus gallinae; [26],100%
same,% Mortality of mites 24 hours after infestation,Dermanyssus gallinae; [26],100%
same,% Inhibition of mites 24 hours after infestation,Dermanyssus gallinae; [27],99%
same,% Mortality of mites 24 hours after infestation,Dermanyssus gallinae; [27],98%
same,% Inhibition of mites 24 hours after infestation,Dermanyssus gallinae; [28],66%
same,% Mortality of mites 24 hours after infestation,Dermanyssus gallinae; [28],59%
same,% Inhibition of mites 24 hours after infestation,Dermanyssus gallinae; [29],27%
same,% Mortality of mites 24 hours after infestation,Dermanyssus gallinae; [29],14%
same,Onset of action against red mites,"Dermanyssus gallinae; all administered doses, orally via drinking water",fast onset of action
same,Tolerability in hens,[1],well tolerated
